Read-outs that look alike come from different tables or passages of the source.
Legend:
D2 receptors = target: T1, D2 receptors (Rattus norvegicus, UniProt P61169); experiment: Displacement of 3H-spiroperidol binding to D2 receptors (striate tissue of rat brain)
T1 construct: Striate tissue of rat brain was prepared; from tissue; host or cells: rat brain striatum, crude membrane homogenate
Method: Studies on binding to D2 receptors.
These were carried out as described by Leysen et al (1978), with certain modifications. Striate tissue of rat brain was prepared, with homogenization in 20 volumes of Tris-HCl buffer in ice (50 mM, pH=7.7, 4° C.), The homogenate was centrifuged (40,000 g, 10 min) and the pellet was suspended in 10 volumes of cold buffer and recentrifuged. The final pellet was suspended in 10 volumes of 50 mM Tris-HCl buffer, with 120 mM of NaCl and 5 mM of […] (pH=7.7). The displacement studies were carried out with 25 μl of ^3 H-spiroperidol (0.2 nM, NEN), 25 μl of cold displacer and 200 μl of tissue. The incubation (37° C., 15 min) was terminated by rapid filtering through Whatman GF/C filters.

5HT2 receptors = target: T2, 5HT2 receptors (Rattus norvegicus, UniProt P14842); experiment: Displacement of 3H-ketanserine binding to 5HT2 receptors (front cortex of rat brain); details: 3H-ketanserine 0.5 nM, 37° C., 15 min
T2 construct: Front cortex of rat brain was prepared; from tissue; host or cells: rat brain frontal cortex, crude membrane homogenate
Method: These were carried out as described by Leysen et al (1978), with certain modifications. […] The incubation (37° C., 15 min) was terminated by rapid filtering through Whatman GF/C filters.

α1-adrenergic receptors = experiment: Displacement of 3H-prazosin binding to α1-adrenergic receptors (rat brain cortex); details: read-out: Displacement (Ki, nM) of the binding of 3H-prazosin to α1-adrenergic receptors, 3H-prazosin 0.5 nM, 37° C., 15 min, pH 7.7
Method: Binding to at adrenergen receptors
These were carried out as described by Morrow et al . […] Rat brain cortical tissue was obtained, with homogenization in 20 volumes of Tris-HCl buffer in ice (50 mM, pH=7.7, 4° C.). The homogenate was centrifuged (25,000 rpm/12 min at 4° C.) and the pellet was rehomogenized, being finally resuspended in 50 mM Tris-HCl buffer, pH=7.7 (dilution 1:200). […] The incubation (37° C., 15 min) was terminated by rapid filtering through Whatman GF/C filters, followed by washing twice with […] of Tris-HCl buffer, 50 mM.

T1 sequence (P61169 whole entry): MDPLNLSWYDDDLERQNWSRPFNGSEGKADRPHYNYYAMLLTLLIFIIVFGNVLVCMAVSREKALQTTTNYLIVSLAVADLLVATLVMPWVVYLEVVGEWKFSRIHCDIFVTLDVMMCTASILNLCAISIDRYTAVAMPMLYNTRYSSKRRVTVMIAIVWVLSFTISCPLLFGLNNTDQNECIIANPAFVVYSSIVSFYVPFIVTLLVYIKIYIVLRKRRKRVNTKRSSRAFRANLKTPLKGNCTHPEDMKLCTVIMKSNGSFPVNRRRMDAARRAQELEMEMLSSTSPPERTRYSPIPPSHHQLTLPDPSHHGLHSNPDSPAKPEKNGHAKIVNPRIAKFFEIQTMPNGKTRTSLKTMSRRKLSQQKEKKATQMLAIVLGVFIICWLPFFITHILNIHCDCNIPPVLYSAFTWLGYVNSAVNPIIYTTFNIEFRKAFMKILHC
T2 sequence (P14842 whole entry): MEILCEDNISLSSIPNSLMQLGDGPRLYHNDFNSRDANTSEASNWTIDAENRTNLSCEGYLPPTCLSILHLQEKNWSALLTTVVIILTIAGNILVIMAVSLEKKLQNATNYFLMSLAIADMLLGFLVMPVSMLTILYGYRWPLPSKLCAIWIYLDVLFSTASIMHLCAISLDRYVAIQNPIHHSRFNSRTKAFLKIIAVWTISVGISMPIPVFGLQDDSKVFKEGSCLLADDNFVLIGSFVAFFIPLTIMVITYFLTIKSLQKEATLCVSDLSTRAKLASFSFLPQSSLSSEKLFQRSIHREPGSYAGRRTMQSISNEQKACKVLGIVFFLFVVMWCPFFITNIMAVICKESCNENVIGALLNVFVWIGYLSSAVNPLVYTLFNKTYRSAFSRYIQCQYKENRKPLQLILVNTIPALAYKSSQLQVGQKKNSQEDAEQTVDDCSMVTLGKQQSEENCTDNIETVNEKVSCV

Q: With Cc1nc2n(c(=O)c1CCN1CC=C(c3noc4cc(F)ccc34)CC1)CCCC2 [Compound I, 3-{2-[4-(6-fluoro-benzo[d]isoxazol-3-yl)-3,6-dihydro-2H-pyridin-1-yl]-ethyl}-2-methyl-6,7,8,9-tetrahydropyrido[1,2-a]-pyrimidin-4-one] as the compound, how does the Ki (D2 receptors) read?
A: 0.022 µM

Q: And the Ki (5HT2 receptors)?
A: 0.0017 µM

Q: And the Ki (α1-adrenergic receptors)?
A: 14.6 nM

Q: Cc1nc2sccn2c(=O)c1CCN1CCC(=C(c2ccc(F)cc2)c2ccc(F)cc2)CC1 [Ritanserine, reference compound] was tested. Which Ki (D2 receptors; striate rat tissue, 3H-spiroperidol 0.2 nM, 37° C., 15 min, pH 7.7) did it give?
A: 0.0477 µM

Q: And the Ki (α1-adrenergic receptors)?
A: 29.6 nM
